# From publication PMC4754833, “Rilpivirine analogs potently inhibit drug-resistant HIV-1 mutants” (Retrovirology, 2016)
# Columns and labels:
# [1] = system: HIV-1 RT mutant E138K; assay: single round infection assay, E138K; format: cell-based; settings: for fold-change of IC50 of the mutant relative to WT: E138K vs WT; for IC50: ± SD, n=4
# Method: (§1) The human osteosarcoma cell line, HOS, was obtained from Dr. Richard Schwartz (Michigan State University, East Lansing, MI) and grown in Dulbecco’s modified Eagle’s medium (Invitrogen, Carlsbad, CA) supplemented with 5 % (v/v) fetal bovine serum, 5 % newborn calf serum, and penicillin (50 units/ml) plus streptomycin (50 µg/ml; Quality Biological, Gaithersburg, MD). Virion production and single-round infectivity assays were used to determine antiviral activity (IC50 values) of the compounds as previously described.
# (§2) pNLNgoMIVR-ΔEnv.LUC has been described previously. The RT open reading frame was removed from pNLNgoMIVR-ΔEnv.LUC (digestion with SpeI and SalI) and inserted between the SpeI and SalI sites of pBluescript II KS+. Using that construct as the wild-type template, we prepared the following HIV-1 RT mutants using the QuikChange II XL (Stratagene, La Jolla, CA) site-directed mutagenesis protocol kit: L100I, K103N, Y181C, Y188L, H221Y, K103N/Y181C, G190A, G190S, M230L, P236L, L100I/K103N, K103N/P225H, V106A/G190A/F227L, V106A, L234I, V106A/F227L, V106A/L234I, V106A/F227L/L234I, E40K, D67E, K101E, V111A, E138K, M184I, M184V, K101E/M184I, K101E/M184V, E138K/M184I, E138K/M184V, K101P, Y181I, and K101P/V179I. The following sense oligonucleotides were used with matching cognate antisense oligonucleotides (not shown) (Integrated DNA Technologies, Coralville, IA) in the mutagenesis: L100I, 5′-[…]-3′; L100I 2-103, 5′-[…]-3′; K103N, 5′-[…]-3′; Y181C, 5′-[…]-3′; Y188L, 5′-[…]-3′; H221Y, 5′-[…]-3′; G190A, 5′-[…]-3′; G190S, 5′-[…]-3′; P225H, 5′-[…]-3′; F227, 5′-[…]-3′; M230L, 5′-[…]-3′; P236L, 5′-[…]-3′; V106A, 5′-[…]-3′; L234I, 5′-[…]-3′; E40K, 5′-[…]-3′; D67E, 5′-[…]-3′; K101E, 5′-[…]-3′; V111A, 5′-[…]-3′; E138K, 5′-[…]-3′; M184I, 5′-[…]-3′; M184V, 5′-[…]-3′; K101P, 5′-[…]-3′; Y181I, 5′-[…]-3′; K101P/V179I, 5′-[…]-3′. The double mutants K103N/Y181C, K103N/P225H, and L100I/K103N were made using the previously generated K103N mutant and the appropriate oligonucleotides to add the second mutation, Y181C, P225, and L100I respectively. The double mutants V106A/F227L and V106A/L234I were prepared using the previously generated V106A mutant and the appropriate oligonucleotides to add the second mutation, F227L and L234I, respectively. The double mutants K101E/M184I and K101E/M184V were constructed using the previously generated K101E mutant and the appropriate oligonucleotides to add the second mutation, M184I and M184V, respectively. The double mutants E138K/M184I and E138K/M184V were constructed using the previously generated E138K mutant and the appropriate oligonucleotides for the second mutation, M184I and M184V, respectively. The triple mutant V106A/F227L/L234I was made using the previously generated V106A/F227L double mutant and the appropriate oligonucleotides for the third mutation, L234I. The triple mutant V106A/G190A/F227L was constructed in a series of steps using the previously generated V106A mutant and the appropriate oligonucleotides for the second mutation, G190A, to generate the double mutant V106A/G190A, and then the triple mutant was made using double mutant V106A/G190A and oligonucleotides for the third mutation, F227L. The DNA sequence of each construct was verified by DNA sequence determination. The sequences encoding the mutant RTs were then subcloned into pNLNgoMIVR-ΔEnv.LUC (between the KpnI and SalI sites) to produce the mutant HIV-1 constructs. These DNA sequences were also checked independently by DNA sequence determination.
# (§3) 10.1186/s12977-016-0244-2 The IC50 values (nM) of RPV and the RPV analogs were determined against the NNRTI resistant mutants were measured by using a single round infection assay, n = 4. The concentrations (nM) are measured by reductions in luciferase reporter activity followed by the standard deviations. […]
# [2] = system: HIV-1 RT mutant K101P/V179I; assay: single round infection assay, K101P/V179I; format: cell-based; settings: for IC50: Human immunodeficiency virus 1; for fold-change of IC50 of the mutant relative to WT: K101P/V179I vs WT
# Method: as §1, §2, §3
# [3] = system: WT HIV-1; settings: previous study; cited from earlier work
# [4] = system: HIV-1 RT mutant L100I; parameters: method as in PMID 23217210; settings: previous study; cited from earlier work
# [5] = system: HIV-1 RT mutant K103N/P225H; assay: single round infection assay, K103N/P225H; format: cell-based; settings: for IC50: Human immunodeficiency virus 1; for fold-change of IC50 of the mutant relative to WT: K103N/P225H vs WT
# Method: as §1, §2, §3
# [6] = system: HIV-1 RT mutant M230L; assay: single round infection assay, M230L; format: cell-based; settings: for fold-change of IC50 of the mutant relative to WT: M230L vs WT; for IC50: ± SD, n=4, limit of detection 100 nM
# Method: as §1, §2, §3
# [7] = system: HIV-1 RT mutant E138K/M184V; assay: single round infection assay, E138K/M184V; format: cell-based; settings: for fold-change of IC50 of the mutant relative to WT: E138K/M184V vs WT; for IC50: ± SD, n=4
# Method: as §1, §2, §3
# [8] = system: HIV-1 RT mutant L100I/K103N; assay: single round infection assay, L100I/K103N; format: cell-based; settings: for fold-change of IC50 of the mutant relative to WT: L100I/K103N vs WT; for IC50: Human immunodeficiency virus 1, L100I/K103N, ± SD, n=4, limit of detection 100 nM
# Method: as §1, §2, §3
# [9] = system: HIV-1 RT mutant K101P; assay: single round infection assay, K101P; format: cell-based; settings: for IC50: Human immunodeficiency virus 1; for fold-change of IC50 of the mutant relative to WT: K101P vs WT
# Method: as §1, §2, §3
# [10] = system: HIV-1 RT mutant K101E/M184I; assay: single round infection assay, K101E/M184I; format: cell-based; settings: for fold-change of IC50 of the mutant relative to WT: K101E/M184I vs WT; for IC50: ± SD, n=4
# Method: as §1, §2, §3
# [11] = system: HIV-1 RT mutant G190A; assay: single round infection assay, G190A; format: cell-based; settings: for IC50: Human immunodeficiency virus 1
# Method: as §1, §2, §3
# [12] = system: HIV-1 RT mutant K101E; assay: single round infection assay, K101E; format: cell-based; settings: for IC50: ± SD, n=4; for fold-change of IC50 of the mutant relative to WT: K101E vs WT
# Method: as §1, §2, §3
# [13] = system: HIV-1 RT mutant K103N; parameters: method as in PMID 23217210; settings: previous study; cited from earlier work
# [14] = Human immunodeficiency virus 1, E138K/M184V
# [15] = Human immunodeficiency virus 1, K101E
# [16] = Human immunodeficiency virus 1, E138K
# [17] = Human immunodeficiency virus 1, M230L
# [18] = Human immunodeficiency virus 1, K101E/M184I
SMILES,fold-change of IC50 of the mutant relative to WT [1],IC50 [2],fold-change of IC50 of the mutant relative to WT [2],IC50 [3],IC50 [4],IC50 [5],fold-change of IC50 of the mutant relative to WT [5],fold-change of IC50 of the mutant relative to WT [6],fold-change of IC50 of the mutant relative to WT [7],IC50 ([7]; E138K/M184V),"IC50 [7, 14]",fold-change of IC50 of the mutant relative to WT [8],IC50 [9],fold-change of IC50 of the mutant relative to WT [9],fold-change of IC50 of the mutant relative to WT [10],IC50 [11],"IC50 [12, 15]",fold-change of IC50 of the mutant relative to WT [12],IC50 [13],"IC50 [1, 16]",also measured
"Cc1cc(/C=C/C#N)cc(C)c1Nc1ccnc(Nc2ccc(C#N)cc2)n1 [RPV, rilpivirine]",4,93.5 ± 12.1 nM,390,< 7 nM,< 7 nM,0.6 ± 0.2 nM,3,7,5,1.3 ± 0.4 nM,< 2.5 nM,10,6.2 nM,26,3,0.4 ± 0.08 nM,< 2.5 nM,11,< 7 nM,,fold-change of IC50 of the mutant relative to WT ([11]; G190A vs WT): < 2; IC50 ([12]; K101E): 2.6 ± 1.6 nM
Cc1cc(/C=C/C#N)cc(C)c1Nc1nc(Nc2ccc(C#N)cc2)ncc1[N+](=O)[O-] [compound 6],3,12.6 nM,25,< 7 nM,< 7 nM,0.8 ± 0.06 nM,< 2,6,3,1.63 ± 0.08 nM,< 2.5 nM,4,2.5 nM,5,< 2,0.2 ± 0.09 nM,< 2.5 nM,5,< 7 nM,< 2.5 nM,IC50 ([1]; E138K): 1.4 ± 0.3 nM; IC50 ([12]; K101E): 2.6 ± 0.96 nM
Cc1cc(/C=C/C#N)cc(C)c1Nc1nc(Nc2ccc(C#N)cc2)ncc1N [compound 7],2,81.4 ± 8.1 nM,104,< 7 nM,< 7 nM,1.1 ± 0.25 nM,< 2,5,3,2.4 ± 0.2 nM,< 2.5 nM,2,9 nM,12,< 2,0.3 nM,< 2.5 nM,3,< 7 nM,< 2.5 nM,"IC50 ([1]; E138K): 1.6 ± 0.07 nM; IC50 [6, 17]: < 6.1 nM; IC50 ([6]; M230L): 4 ± 2 nM; IC50 [10, 18]: < 2.5 nM; IC50 ([10]; K101E/M184I): 1.3 ± 0.6 nM; IC50 ([12]; K101E): 2.3 ± 1.2 nM"
Cc1cc(/C=C/C#N)cc(C)c1Nc1ncc2ncn(-c3ccc(C#N)cc3)c2n1 [compound 26],4,> 100 nM,,,,12.9 nM,< 2,,< 2,,13.2 ± 2.3 nM,,> 100 nM,,,2.2 nM,56.1 ± 4.1 nM,7,,28.8 ± 1.1 nM,"IC50 [6, 17]: > 100 nM; IC50 [8]: > 100 nM; IC50 [10, 18]: 7.3 ± 1.8 nM"
Cc1cc(/C=C/C#N)cc(C)c1-n1cnc2cnc(Nc3ccc(C#N)cc3)nc21 [compound 27],2,16.6 nM,29,< 7 nM,< 7 nM,2.1 ± 0.93 nM,4,7,3,1.8 ± 0.8 nM,< 2.5 nM,69,4.9 nM,8,,0.2 ± 0.1 nM,,2,< 7 nM,< 2.5 nM,"IC50 ([1]; E138K): 1.3 ± 0.14 nM; IC50 [6, 17]: < 6.1 nM; IC50 ([6]; M230L): 4.2 ± 0.5 nM; IC50 [8]: 39.8 nM"
